Data set [1] addresses T1, Mps-1 kinase (Homo sapiens, UniProt P33981).
T1 sequence (P33981 1-857): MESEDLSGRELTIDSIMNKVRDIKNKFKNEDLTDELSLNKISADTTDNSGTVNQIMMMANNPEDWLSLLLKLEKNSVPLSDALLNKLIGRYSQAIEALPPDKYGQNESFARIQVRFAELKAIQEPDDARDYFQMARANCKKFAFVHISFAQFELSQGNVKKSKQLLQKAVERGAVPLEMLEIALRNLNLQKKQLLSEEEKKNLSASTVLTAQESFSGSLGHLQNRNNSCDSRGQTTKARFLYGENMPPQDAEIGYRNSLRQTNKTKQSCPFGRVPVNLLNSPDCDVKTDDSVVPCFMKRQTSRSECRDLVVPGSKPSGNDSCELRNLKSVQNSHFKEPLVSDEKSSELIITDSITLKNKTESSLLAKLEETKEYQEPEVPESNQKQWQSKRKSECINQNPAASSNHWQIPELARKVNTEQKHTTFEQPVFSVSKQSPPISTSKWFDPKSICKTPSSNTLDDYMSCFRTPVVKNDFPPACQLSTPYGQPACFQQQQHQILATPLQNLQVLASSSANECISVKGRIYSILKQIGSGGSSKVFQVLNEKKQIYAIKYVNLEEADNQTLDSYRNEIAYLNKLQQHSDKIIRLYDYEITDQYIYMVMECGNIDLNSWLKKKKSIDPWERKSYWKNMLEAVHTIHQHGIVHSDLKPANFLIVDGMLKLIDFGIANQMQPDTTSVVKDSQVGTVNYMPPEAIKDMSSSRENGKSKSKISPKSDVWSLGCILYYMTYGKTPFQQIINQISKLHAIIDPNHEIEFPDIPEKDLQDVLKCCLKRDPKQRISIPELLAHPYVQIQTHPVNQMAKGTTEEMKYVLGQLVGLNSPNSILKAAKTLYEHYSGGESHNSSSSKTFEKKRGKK
The data set is described as follows: Mps-1 kinase assay with 10 μM ATP (TR-FRET).

Data set [2] is described as follows: Hydrolytic stability assay at pH 2. The data set is classed as physicochemical. To be noted: buffer pH 2, 37° C., compounds of the invention. The protocol:
The hydrolytic stability assay investigates the stability of a compound in an aqueous buffer system. Standard solution stability assay is run in 0.05 M Phosphate buffer at pH 7.4 (pH of blood plasma) at 37° C. As compounds in the GI tract are exposed to a wide variety of pHs any relevant pH (as pH 2 to simulate the acidic condition of the GI tract in the following experiment) can be chosen. Compounds are incubated in relevant solution at 37° C. and analyzed by HPLC immediately after incubation and after 1, 2 and 24 hrs. Degradation rate (decay in %) is calculated by relating peak areas after 1, 2 and 24 hrs to the time zero injection.
Compound is available as 10 mM in DMSO (solution 1). 2.5 μL of solution 1 is dissolved in 1 mL acetonitrile leading to solution 2. Poorly soluble compounds may demand another dilution step of solution 2 (1:5 and 1:10 respectively) in Acetonitrile). Solution 2 is incubated at 37° C. in a tempered HPLC autosampler. 1 mL buffer pH 2 is transferred into an HPLC vial. 100 μL of solution 2 is added to the buffer pH 2 solution and mixed thoroughly. Immediately after mixing the combined solution is injected into the HPLC to give the time zero injection. Injections are repeated after 1, 2 and 24 hrs.
The degradation rate (decay in %) is calculated using HPLC software Millennium and Excel respectively.

Data set [3] concerns the target T1, Mps-1 kinase. The experiment in a line: Mps-1 kinase assay with 2 mM ATP (TR-FRET).

A value given as a limit tells only on which side of the number the result lay.

Usually IC50 stands for the midpoint of a concentration-inhibition curve. As to `COc1cc(C(=O)NC(C)(C)C)ccc1Nc1nc2ccc(-c3ccc(C(=O)NCc4ccc(F)cc4)cc3)cn2n1` [Example 02.14, N-tert-butyl-4-[(6-{4-[(4-fluorobenzyl)carbamoyl]phenyl}[1,2,4]triazolo-[1,5-α]pyridin-2-yl)amino]-3-methoxybenzamide], the IC50 is at most 1 nM in data set [1] and 2.4 nM in data set [3]. Also, in data set [2], the “Hydrolysis at pH 2; Decay in % after 24 h” value (shortened to “Hydrolysis … in % after 24 h”) is given as below 10%.

On to `CCOCCNC(=O)c1ccc(Nc2nc3ccc(-c4ccc(NC(=O)Cc5ccc(F)cc5)cc4)cn3n2)c(OC)c1` [Example 01.7, N-(2-ethoxyethyl)-4-{[6-(4-{[(4-fluorophenyl)acetyl]amino}phenyl)[1,2,4]-triazolo[1,5-α]pyridin-2-yl]amino}-3-methoxybenzamide], for which the IC50 in data set [1] and in data set [3] was at most 1 nM in each case. Besides, the “Hydrolysis … in % after 24 h” value in data set [2] was below 10%.

Regarding `COc1ccc(Nc2nc3ccc(-c4ccc(C(=O)NCc5ccc(F)cc5)cc4)cn3n2)c(OC)c1` [Example 02.16, 4-{2-[(2,4-dimethoxyphenyl)amino][1,2,4]triazolo[1,5-α]pyridin-6-yl}-N-(4-fluorobenzyl)benzamide], the IC50 in data set [1] is at most 1 nM; in data set [3], 3.8 nM. Moreover, the “Hydrolysis … in % after 24 h” value in data set [2] is on record as below 10%.

In the case of `O=C(Cc1ccc(F)cc1)Nc1ccc(-c2ccc3nc(Nc4ccc(C(=O)NCC(F)(F)F)cc4OCC(F)(F)F)nn3c2)cc1` [Example 01.27, 4-{[6-(4-{[(4-fluorophenyl)acetyl]amino}phenyl)[1,2,4]triazolo[1,5-α]-pyridin-2-yl]amino}-3-(2,2,2-trifluoroethoxy)-N-(2,2,2-trifluoroethyl)-benzamide], the IC50 in data set [1] and in data set [3] was at most 1 nM throughout. Also, the “Hydrolysis … in % after 24 h” value in data set [2] is reported as below 10%.

For the molecule `CCOc1cc(C(=O)NCCO)ccc1Nc1nc2ccc(-c3ccc(C(=O)NCC4CC4)cc3)cn2n1` [Example 06.3, 4-[(6-{4-[(cyclopropylmethyl)carbamoyl]phenyl}[1,2,4]triazolo[1,5-α]-pyridin-2-yl)amino]-3-ethoxy-N-(2-hydroxyethyl)benzamide], the IC50 in data set [1] is at most 1 nM; in data set [3] it was 21 nM. Further, the “Hydrolysis … in % after 24 h” value in data set [2] is below 10%.

With `CCN(CC)C(=O)c1ccc(Nc2nc3ccc(-c4ccc(NC(=O)Cc5ccc(F)cc5)cc4)cn3n2)c(OCC2CC2)c1` [Example 01.24, 3-(cyclopropylmethoxy)-N,N-diethyl-4-{[6-(4-{[(4-fluorophenyl)acetyl]-amino}phenyl)[1,2,4]triazolo[1,5-α]pyridin-2-yl]amino}benzamide], the results for the IC50 in data set [1] and in data set [3] were at most 1 nM and 1.2 nM, respectively. Further, the “Hydrolysis … in % after 24 h” value in data set [2] is below 10%.

For `CCOc1cc(C(=O)NC(C)(C)CO)ccc1Nc1nc2ccc(-c3ccc(NC(=O)Cc4ccc(F)cc4)cc3)cn2n1` [Example 01.9, 3-ethoxy-4-{[6-(4-{[(4-fluorophenyl)acetyl]amino}phenyl)[1,2,4]triazolo-[1,5-α]pyridin-2-yl]amino}-N-(1-hydroxy-2-methylpropan-2-yl)benzamide], the IC50 in data set [1] and in data set [3] was at most 1 nM each time. Further, in data set [2], the “Hydrolysis … in % after 24 h” value is given as below 10%.

For the molecule `COc1cc(C(=O)NCCO)ccc1Nc1nc2ccc(-c3ccc(NC(=O)Cc4ccc(F)cc4)cc3)cn2n1` [Example 01.6, 4-{[6-(4-{[(4-fluorophenyl)acetyl]amino}phenyl)[1,2,4]triazolo[1,5-α]-pyridin-2-yl]amino}-N-(2-hydroxyethyl)-3-methoxybenzamide], the IC50 in data set [1] and in data set [3] was at most 1 nM throughout. Besides, the “Hydrolysis … in % after 24 h” value in data set [2] was below 10%.

`CCOc1cc(C(=O)N(C)CCO)ccc1Nc1nc2ccc(-c3ccc(C(=O)NCc4ccc(F)cc4)cc3)cn2n1` [Example 02.12, 3-ethoxy-4-[(6-{4-[(4-fluorobenzyl)carbamoyl]phenyl}[1,2,4]triazolo[1,5-α]pyridin-2-yl)amino]-N-(2-hydroxyethyl)-N-methylbenzamide]: the IC50 in data set [1] and in data set [3] was at most 1 nM throughout. The “Hydrolysis … in % after 24 h” value in data set [2] was below 10%.

For `CCOc1cc(C(=O)N(C)CCO)ccc1Nc1nc2ccc(-c3ccc(NC(=O)Cc4ccc(F)cc4)cc3)cn2n1` [Example 01.19, 3-ethoxy-4-{[6-(4-{[(4-fluorophenyl)acetyl]amino}phenyl)[1,2,4]triazolo-[1,5-α]pyridin-2-yl]amino}-N-(2-hydroxyethyl)-N-methylbenzamide], the IC50 in data set [1] and in data set [3] was at most 1 nM in each case. In addition, in data set [2], the “Hydrolysis … in % after 24 h” value is listed as below 10%.

In the case of `O=C(NCCO)c1ccc(Nc2nc3ccc(-c4ccc(C(=O)NCC5CC5)cc4)cn3n2)c(OCC(F)(F)F)c1` [Example 06.4, 4-[(6-{4-[(cyclopropylmethyl)carbamoyl]phenyl}[1,2,4]triazolo[1,5-α]-pyridin-2-yl)amino]-N-(2-hydroxyethyl)-3-(2,2,2-trifluoroethoxy)benzamide], the IC50 in data set [1] is at most 1 nM; in data set [3], 11 nM. Moreover, in data set [2], the “Hydrolysis … in % after 24 h” value is recorded as below 10%.

For `CNCCN(C)C(=O)c1ccc(Nc2nc3ccc(-c4ccc(NC(=O)Cc5ccc(F)cc5)cc4)cn3n2)c(OC)c1` [Example 01.20, 4-{[6-(4-{[(4-fluorophenyl)acetyl]amino}phenyl)[1,2,4]triazolo[1,5-α]-pyridin-2-yl]amino}-3-methoxy-N-methyl-N-[2-(methylamino)ethyl]-benzamide], the IC50 in data set [1] and in data set [3] was at most 1 nM throughout. In addition, the “Hydrolysis … in % after 24 h” value in data set [2] is listed as below 10%.

In the case of `O=C(NCCO)c1ccc(Nc2nc3ccc(-c4ccc(C(=O)NCc5ccc(F)cc5)cc4)cn3n2)c(OCC(F)(F)F)c1` [Example 02.4, 4-[(6-{4-[(4-fluorobenzyl)carbamoyl]phenyl}[1,2,4]triazolo[1,5-α]pyridin-2-yl)amino]-N-(2-hydroxyethyl)-3-(2,2,2-trifluoroethoxy)benzamide], the IC50 in data set [1] and in data set [3] was at most 1 nM in each case. For the same molecule, the “Hydrolysis … in % after 24 h” value in data set [2] is on record as below 10%.

For the molecule `CCOc1cc(C(=O)NC(C)(C)C)ccc1Nc1nc2ccc(-c3ccc(C(=O)NCc4ccc(F)cc4)cc3)cn2n1` [Example 02.21, N-tert-butyl-3-ethoxy-4-[(6-{4-[(4-fluorobenzyl)carbamoyl]phenyl}[1,2,4]-triazolo[1,5-α]pyridin-2-yl)amino]benzamide], the IC50 in data set [1] is at most 1 nM; in data set [3], 2.4 nM. Also, the “Hydrolysis … in % after 24 h” value in data set [2] is below 10%.

With `CCOc1cc(C(=O)NCC(C)(C)O)ccc1Nc1nc2ccc(-c3ccc(C(=O)NCc4ccc(F)cc4)cc3)cn2n1` [Example 02.7, 3-ethoxy-4-[(6-{4-[(4-fluorobenzyl)carbamoyl]phenyl}[1,2,4]triazolo[1,5-α]pyridin-2-yl)amino]-N-(2-hydroxy-2-methylpropyl)benzamide], the IC50 in data set [1] and in data set [3] was at most 1 nM in each case. Moreover, the “Hydrolysis … in % after 24 h” value in data set [2] is on record as below 10%.

Turning to `COc1cc(C(=O)NCC(C)(C)O)ccc1Nc1nc2ccc(-c3ccc(C(=O)NCc4ccc(F)cc4)cc3)cn2n1` [Example 02.5, 4-[(6-{4-[(4-fluorobenzyl)carbamoyl]phenyl}[1,2,4]triazolo[1,5-α]pyridin-2-yl)amino]-N-(2-hydroxy-2-methylpropyl)-3-methoxybenzamide], the IC50 in data set [1] is at most 1 nM; in data set [3], 1.8 nM. The “Hydrolysis … in % after 24 h” value in data set [2] is given as below 10%.

Values taken from US20140120087A1, “TRIAZOLOPYRIDINES” (BAYER INTELLECTUAL PROPERTY GMBH, priority 2011, published 2014).
